Laboratory results published in patent US20250262188A1, “Methods of Increasing the Plasma Drug Exposure of Anticancer Agents” (Scandion Oncology A/S, priority 2021, published 2025).
“Also recorded” adds a separate entry of the source. Where two headings read alike, the source gives them in different places.

What was measured:
BCRP [1] = molecular target: T1, BCRP (Homo sapiens, UniProt Q9UNQ0); test: 3H-SN-38 uptake in HT29 parental cell monolayers (Example 6); format: cell-based; details: 25 μM test compound; HT29 parental; ANOVA α=0.05
T1 construct: endogenous in cells; host or cells: HT29 parental and HT29 SN38-resistant colorectal cancer cells
T1 sequence (Q9UNQ0 1-655): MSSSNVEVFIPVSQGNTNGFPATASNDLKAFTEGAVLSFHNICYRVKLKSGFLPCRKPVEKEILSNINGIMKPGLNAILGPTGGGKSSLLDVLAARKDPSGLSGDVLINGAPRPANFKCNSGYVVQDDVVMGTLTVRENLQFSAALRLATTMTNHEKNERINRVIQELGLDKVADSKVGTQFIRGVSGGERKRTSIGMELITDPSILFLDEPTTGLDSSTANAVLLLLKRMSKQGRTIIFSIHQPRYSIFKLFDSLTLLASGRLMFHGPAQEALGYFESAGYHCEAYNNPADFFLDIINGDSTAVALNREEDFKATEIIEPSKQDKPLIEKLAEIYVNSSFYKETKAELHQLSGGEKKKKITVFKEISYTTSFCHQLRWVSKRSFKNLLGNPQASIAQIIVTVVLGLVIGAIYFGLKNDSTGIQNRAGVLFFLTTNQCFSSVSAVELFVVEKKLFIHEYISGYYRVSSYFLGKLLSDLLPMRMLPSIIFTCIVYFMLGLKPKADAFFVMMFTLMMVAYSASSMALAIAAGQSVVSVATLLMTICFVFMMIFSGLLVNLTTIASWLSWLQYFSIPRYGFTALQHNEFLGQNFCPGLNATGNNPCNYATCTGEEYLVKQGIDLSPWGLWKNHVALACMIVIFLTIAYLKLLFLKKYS
Procedure: (§1) All treatments were investigated in three technical replicates (N=3). On the day of experimentation, the culture media was exchanged with 100 μL transport buffer (HBSS, 0.05% BSA, 10 mM HEPES, pH 7.4) and cells were incubated for 15 minutes at 37° C.
(§2) Subsequently, the blank transport buffer was exchanged with 50 μL transport buffer containing the different compounds (in 2x of the final concentration) to be tested and incubated for 15 minutes at 37° C. The uptake experiment was started by adding 50 μL of ^3H-SN38 at a concentration of 2 μCi/mL to all wells (the resulting concentration of ^3H-SN38 during the experiment was 1 μCi/mL). The uptake experiment was stopped after 15 minutes of incubation at 37° C. by removing the transport buffer from all wells.
(§3) The cell monolayers were subsequently washed twice by adding/removing ice-cold transport buffer twice and finally the cell monolayers were lysed by incubation in 100 μl of 0.1% TritonX-100 for 15 minutes at ambient temperature. Cell lysates were transferred to scintillation vials containing 2 mL of scintillation fluid (Ultima Gold, PerkinElmer). Each well was washed with 2×100 μL purified water (milliQ), which was also transferred to respective scintillation vials.

BCRP [2] = molecular target: T1, BCRP; test: 3H-SN-38 uptake in HT29 SN-38 resistant cell monolayers (Example 6); format: cell-based; details: 25 μM test compound, HT29 SN-38 resistant, ANOVA α=0.05
Procedure: as §1, §2, §3

[3] = SN-38 and irinotecan PK in patients with 100 or 150 mg SCO-101 and FOLFIRI versus literature (Example 7); details: for AUC Mean (SD) / Cmax Mean (SD): Irinotecan (FOLFIRI) Norm 125 mg/m2, add-on 150 mg SCO-101 (n = 10)
[4] = Irinotecan (Camptosar) Norm 125 mg/m2, NO SCO-101 (n = 99), literature value; cited from earlier work
[5] = SN-38 PK profile and tolerability in metastatic colorectal cancer patients treated with SCO-101 and FOLFIRI (Example 2); format: in vivo, human
Procedure: Patients with metastatic colorectal cancer were included in a study and treated with a combination of SCO-101 and FOLFIRI (combination of irinotecan, 5-FU and leucovorin) in 14 day treatment cycles. Patients received varying doses of Irinotecan between 50% and 80% of the recommended dose of Irinotecan (180 mg/m^2) according to their individual tolerability, which is standard practise. On days 1, 2, 3, 4, 5 and 6 in each treatment cycle, patients received one fixed daily dose of 150 mg SCO-101 taken in the morning at least 30 minutes before ingestion of food. On day 5 to 7, patients received FOLFIRI as specified for Colorectal cancer combination regimen 2.
Blood plasma samples were analysed for concentrations of SCO-101, irinotecan and SN-38 using Liquid Chromatography with Tandem Mass Spectrometric Detection (LC-MS/MS) bioanalytical method calibrated and validated in the rant 300 to 90.000 ng/ml. The method and system, including validation were according to industry standard. Data were analysed using commercially available software such as Win-Non-Lin (available from Certara inc.)
A trial was setup to address the safety, tolerability, and efficacy of SCO-101 given orally for 6 days followed by FOLFIRI at varying doses from day 5 to 7, in a biweekly schedule, in patients with metastatic colorectal cancer who have formerly been treated with FOLFIRI and afterwards progressed. The first part of the study was a dose-finding study, where the impact of SCO-101 on the pharmacokinetics (PK) of SN-38 was studied.
12 patients from the dose-finding part of the study received 150 mg SCO-101 for 6 days and […] of the recommended dose of FOLFIRI. 6 of the patients had RAS wildtype tumors and these patients were subjected to further analysis.
Blood for pharmacokinetic analysis was sampled from the patients were taken at 1, 2, 4, 8, 24, 48, and 96 hours after treatment with FOLFIRI and SCO-101.

[6] = FIG. 1A, cited from earlier work
[7] = SN-38, 90 mg/m2 irinotecan + SCO-101 vs 180 mg/m2 standard

Structure (SMILES)	Uptake of SN-38 relative to blank HBSS transport buffer control (BCRP [1])	AUC Mean (SD) [3] [ng·h/mL]	Cmax Mean (SD) [3] [ng/mL]	AUC Mean (SD) [4] [ng·h/mL]	Cmax Mean (SD) [4] [ng/mL]	Uptake of SN-38 relative to blank HBSS transport buffer control (BCRP [2])	further results
Nc1ncnc2n[nH]c(Nc3ccc(F)cc3)c12 [CGP57380]	significant increase	–	–	–	–	–	Uptake of SN-38 relative to blank HBSS transport buffer control (BCRP [2]; listed as CGP5738): not different
CCc1c2c(nc3ccc(OC(=O)N4CCC(N5CCCCC5)CC4)cc13)-c1cc3c(c(=O)n1C2)COC(=O)[C@]3(O)CC [Irinotecan]	–	12565	1457	10529	1492	–	–
CCc1c2c(nc3ccc(O)cc13)-c1cc3c(c(=O)n1C2)COC(=O)[C@]3(O)CC [SN-38]	–	2088	86	267	27.8	–	Fold increase (study vs Standard) of AUC_0-24 [5, 7]: 3.7; Fold increase (study vs Standard) of Cmax [5, 7]: 1.5; Fold increase (study vs Standard) of T½ [5, 7]: 1.6; half-life ([5]; human, plasma, intravenous, SN-38 study: 150 mg SCO-101 + FOLFIRI, normalized to irinotecan 90 mg/m2, day 5, read-out: T½ hours (SD) (converted)): 19 h; AUC(0-t) ([5]; human, plasma, intravenous, SN-38 study: 150 mg SCO-101 + FOLFIRI, normalized to irinotecan 90 mg/m2, read-out: AUC_0-24 h*ng/ml (SD)): 1420 ng·h/mL; SN-38 plasma Cmax ([6]; conventional irinotecan regime 180 mg/m^2, no SCO-101, public reference data): about 25 ng/ml; Time after which SN-38 plasma concentration becomes therapeutically ineffective ([6]; conventional irinotecan regime 180 mg/m^2): about 24 hours; Fold increase in AUC of SN-38 vs 125 mg/m2 irinotecan administered alone ([3]; 100 mg SCO-101): approximately 5 fold; Fold increase in AUC of SN-38 vs 125 mg/m2 irinotecan administered alone ([3]; 150 mg SCO-101): ~8 fold
O=C(Nc1cc(C(F)(F)F)ccc1N1CCCCC1)c1ccncc1 [Srpin340]	significant increase	–	–	–	–	significantly increased; also recorded: significant increase	–
Cc1cc(Nc2cc(N)ncn2)c(=O)n2c1C(=O)NC21CCCCC1 [Tomivorsetib]	significant increase	–	–	–	–	significantly increased; also recorded: significant increase	–
